According to patent publication US11078165B2 (priority 2017, dated 2021):
In brackets after ≈: the same amount, converted by molar mass. Where two headings read alike, the source gives them in different places.

Assays:
[1] = biological target: F-ATP synthase of inverted membrane vesicles (IMV) of M. smegmatis; experiment: ATP synthesis assay with inverted membrane vesicles; settings: read-out: IC50 [μM], effect on ATP synthesis, IMVs of M. smegmatis
[2] = test system: M. smegmatis mc^2 155; experiment: Minimum inhibitory concentration, broth micro dilution; format: cell-based, Mycobacterium smegmatis; settings: Mycolicibacterium smegmatis, MC^2155; M. smegmatis growth, 24 h; read-out: MIC50 [μM], bacterial growth
[3] = test system: M. bovis BCG; experiment: microbe, parasite or virus in culture; format: cell-based, Mycobacterium bovis; settings: for ATP synthesis (luminescence): FIG. 3C; for IC50: Mycobacterium tuberculosis variant bovis BCG, BCG, FIG. 3D
[4] = test system: IMVs of M. phlei; settings: reported [1], read-out: IC50, ATP synthesis; cited from earlier work
[5] = test system: extracellular oxygen consumption; experiment: Oxygen consumption rate; format: cell-based
[6] = Mouse liver microsome stability; format: in vitro ADME; settings: for half-life: mouse, liver microsomes

F-ATP synthase of inverted membrane vesicles (IMV) of M. smegmatis, sequence (A0R203 whole entry): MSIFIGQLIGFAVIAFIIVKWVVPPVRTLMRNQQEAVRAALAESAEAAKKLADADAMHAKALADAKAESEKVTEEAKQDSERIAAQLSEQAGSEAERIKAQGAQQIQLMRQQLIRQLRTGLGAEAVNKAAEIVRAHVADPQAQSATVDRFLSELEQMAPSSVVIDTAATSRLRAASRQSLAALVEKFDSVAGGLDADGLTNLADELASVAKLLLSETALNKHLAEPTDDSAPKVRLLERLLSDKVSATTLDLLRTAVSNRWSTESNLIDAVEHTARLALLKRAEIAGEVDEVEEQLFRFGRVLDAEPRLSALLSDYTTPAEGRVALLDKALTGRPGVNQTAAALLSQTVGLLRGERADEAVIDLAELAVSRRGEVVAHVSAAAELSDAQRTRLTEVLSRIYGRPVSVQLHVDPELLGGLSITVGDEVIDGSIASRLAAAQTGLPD
F-ATP synthase of inverted membrane vesicles (IMV) of M. smegmatis, sequence (A0R1Z9 whole entry, further chain): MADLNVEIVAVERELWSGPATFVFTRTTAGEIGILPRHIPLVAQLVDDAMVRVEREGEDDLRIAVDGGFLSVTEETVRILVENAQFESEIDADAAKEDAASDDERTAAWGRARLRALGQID
F-ATP synthase of inverted membrane vesicles (IMV) of M. smegmatis, sequence (A0R200 whole entry, further chain): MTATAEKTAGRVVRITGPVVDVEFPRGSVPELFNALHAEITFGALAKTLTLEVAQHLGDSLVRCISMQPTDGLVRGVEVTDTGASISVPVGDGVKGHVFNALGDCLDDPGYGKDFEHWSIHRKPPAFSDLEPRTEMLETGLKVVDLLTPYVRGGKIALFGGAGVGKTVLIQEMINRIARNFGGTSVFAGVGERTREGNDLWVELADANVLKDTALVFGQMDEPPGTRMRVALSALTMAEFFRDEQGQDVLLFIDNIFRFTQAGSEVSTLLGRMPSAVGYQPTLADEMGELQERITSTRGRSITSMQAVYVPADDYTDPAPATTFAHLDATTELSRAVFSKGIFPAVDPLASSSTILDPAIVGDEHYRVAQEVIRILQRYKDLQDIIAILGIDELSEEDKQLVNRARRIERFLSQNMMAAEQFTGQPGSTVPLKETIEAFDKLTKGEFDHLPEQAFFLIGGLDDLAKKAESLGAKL
F-ATP synthase of inverted membrane vesicles (IMV) of M. smegmatis, sequence (A0R201 whole entry, further chain): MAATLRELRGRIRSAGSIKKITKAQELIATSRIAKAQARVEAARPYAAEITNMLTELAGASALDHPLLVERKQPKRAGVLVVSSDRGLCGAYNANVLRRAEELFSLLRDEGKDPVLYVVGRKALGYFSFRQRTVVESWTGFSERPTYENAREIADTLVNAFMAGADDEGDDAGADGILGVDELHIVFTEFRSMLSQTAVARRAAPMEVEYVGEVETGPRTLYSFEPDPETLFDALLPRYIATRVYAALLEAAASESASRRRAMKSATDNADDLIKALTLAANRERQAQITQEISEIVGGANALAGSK
F-ATP synthase of inverted membrane vesicles (IMV) of M. smegmatis, sequence (A0R202 whole entry, further chain): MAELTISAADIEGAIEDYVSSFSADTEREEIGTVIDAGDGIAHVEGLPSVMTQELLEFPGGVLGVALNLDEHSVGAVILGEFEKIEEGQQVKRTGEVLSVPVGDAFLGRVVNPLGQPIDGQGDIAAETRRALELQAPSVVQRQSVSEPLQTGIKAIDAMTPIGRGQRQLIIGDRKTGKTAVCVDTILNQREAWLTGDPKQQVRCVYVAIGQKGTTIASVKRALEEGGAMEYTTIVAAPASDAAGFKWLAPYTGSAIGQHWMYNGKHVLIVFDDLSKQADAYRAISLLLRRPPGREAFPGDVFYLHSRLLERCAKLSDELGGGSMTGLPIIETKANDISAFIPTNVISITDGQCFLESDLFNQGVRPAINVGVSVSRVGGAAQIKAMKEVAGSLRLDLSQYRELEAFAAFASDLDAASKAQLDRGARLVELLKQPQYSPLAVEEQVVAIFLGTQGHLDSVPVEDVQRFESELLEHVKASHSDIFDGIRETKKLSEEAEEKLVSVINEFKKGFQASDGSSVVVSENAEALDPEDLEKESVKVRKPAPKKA

SMILES	IC50 [1]	melting point	MIC50 [2]	further results
CCNc1cc(C)nc(Nc2ccc(NC(=O)c3cccc(O)c3)cc2)n1 [3OH U Et, N-(4-((4-(ethylamino)-6-methylpyrimidin-2-yl)amino)phenyl)-3-hydroxybenzamide]	1.16 ± 0.09 µM	283 to 285 °C	79.6 ± 9.13 µM (≈ 28.9 µg/mL)	–
CCNc1cc(C)nc(Nc2ccc(NC(=O)c3ccc(C)cc3)cc2)n1 [4Me U Et, N-(4-((4-(ethylamino)-6-methylpyrimidin-2-yl)amino)phenyl)-4-methylbenzamide]	0.39 ± 0.02 µM	297 to 300 °C	31.8 ± 7.8 µM (≈ 11.5 µg/mL)	–
CCNc1cc(C)nc(Nc2ccc(NC(=O)c3ccc(OC)cc3)cc2)n1 [4OMe U Et, N-(4-((4-(ethylamino)-6-methylpyrimidin-2-yl)amino)phenyl)-4-methoxybenzamide]	0.69 ± 0.06 µM	285 to 288 °C	17.3 ± 2.26 µM (≈ 6.52 µg/mL)	whole cell ATP synthesis inhibition versus drug free control ([3]; analog in combination with BDQ, FIG. 6A, 6B): significant increase in the inhibition
COc1nc2ccc(Br)cc2cc1[C@@H](c1ccccc1)[C@@](O)(CCN(C)C)c1cccc2ccccc12 [BDQ, 1-(6-bromo-2-methoxy-quinolin-3-yl)-4-dimethylamino-2-naphthalen-1-yl-1-phenyl-butan-2-ol]	–	–	–	ATP synthesis (luminescence) ([3]; 12.5 nM BDQ in the presence of 37.5 μM of cpd 6): 6.5×10^3 RLU; ATP synthesis (luminescence) ([3]; BDQ alone at 200 nM, drug-free 3.7×10^4 RLU): 8×10^3 RLU; IC50 ([3]; read-out: IC50 value of BDQ, BDQ alone): 42 nM; IC50 ([3]; read-out: IC50 value of BDQ, in combination with cpd 6): 2.36 nM; IC50 [4]: 20 to 25 nM; concentration inhibiting extracellular oxygen consumption ([5]; BDQ alone): about 500 nM; concentration needed for similar inhibition of oxygen consumption ([5]; BDQ in combination with 40 μM of cpd 6): 50 nm
Cc1cc(NCCO)nc(Nc2ccc(NC(=O)c3cccc(Br)c3)cc2)n1 [Br EtOH]	0.42 ± 0.03 µM	237 to 241 °C	19 ± 1.5 µM (≈ 8.41 µg/mL)	–
CCOC(=O)CNc1cc(C)nc(Nc2ccc(NC(=O)c3cccc(Br)c3)cc2)n1 [Br Gly, ethyl (2-((4-(3-bromobenzamido)phenyl)amino)-6-methylpyrimidin-4-yl)glycinate]	2.01 ± 0.16 µM	> 230 °C	15.5 ± 1.52 µM (≈ 7.53 µg/mL)	–
CNc1cc(C)nc(Nc2ccc(NC(=O)c3cccc(Br)c3)cc2)n1 [Br Me, 3-bromo-N-(4-((4-methyl-6-(methylamino)pyrimidin-2-yl)amino)phenyl)benzamide]	0.39 ± 0.06 µM	301 to 303 °C	12.4 ± 0.56 µM (≈ 5.11 µg/mL)	–
CCNc1nc(Nc2ccc(NC(=O)c3cccc(Br)c3)cc2)ncc1C [Br T Et, 3-bromo-N-(4-((4-(ethylamino)-5-methylpyrimidin-2-yl)amino)phenyl)benzamide]	0.62 ± 0.08 µM	> 230 °C	12.3 ± 0.73 µM (≈ 5.25 µg/mL)	–
CCNc1nc(C)cc(Nc2ccc(NC(=O)c3cccc(Br)c3)cc2)n1 [Br U Et iso (Cpd 6 iso), 3-bromo-N-(4-((2-(ethylamino)-6-methylpyrimidin-4-yl)amino)phenyl)benzamide]	0.38 ± 0.03 µM	260 to 264 °C	20.8 ± 1.9 µM (≈ 8.88 µg/mL)	–
CCNc1ccnc(Nc2ccc(NC(=O)c3cccc(Br)c3)cc2)n1 [Br desMe, 3-bromo-N-(4-((4-(ethylamino)pyrimidin-2-yl)amino)phenyl)benzamide]	1.03 ± 0.25 µM	229 to 231 °C	16.8 ± 2.6 µM (≈ 6.93 µg/mL)	–
Cc1cc(NC(C)C)nc(Nc2ccc(NC(=O)c3cccc(Br)c3)cc2)n1 [Br iso, 3-bromo-N-(4-((4-(isopropylamino)-6-methylpyrimidin-2-yl)amino)phenyl)benzamide]	2.69 ± 0.21 µM	183 to 185 °C	50.1 ± 4.5 µM (≈ 22.1 µg/mL)	–
CCNc1cc(C)nc(Nc2ccc(NC(=O)c3cccc(Br)c3)cc2)n1 [Cpd 6, 3-bromo-N-(4-((4-(ethylamino)-6-methylpyrimidin-2-yl)amino)phenyl)benzamide]	–	–	–	microsomal CLint ([6]; mouse liver microsomes): 14.6 µL/min/mg; half-life ([6]; read-out: T½): 47.5 min; half-life ([6]; without NADPH, read-out: T½ w/o NADPH): 68 min
CCNc1nc(Nc2ccc(NC(=O)c3cccc(F)c3)cc2)ncc1C [F T Et, N-(4-((4-(ethylamino)-5-methylpyrimidin-2-yl)amino)phenyl)-3-fluorobenzamide]	0.92 ± 0.04 µM	–	43.5 ± 3.57 µM (≈ 15.9 µg/mL)	–
CCNc1cc(C)nc(Nc2ccc(NC(=O)c3cccc(F)c3)cc2)n1 [F U Et, N-(4-((4-(ethylamino)-6-methylpyrimidin-2-yl)amino)phenyl)-3-fluorobenzamide]	0.26 ± 0.05 µM	259 to 263 °C	18.7 ± 1.25 µM (≈ 6.84 µg/mL)	–
CCNc1nc(Nc2ccc(NC(=O)c3ccccc3)cc2)ncc1C [H T Et, N-(4-((4-(ethylamino)-5-methylpyrimidin-2-yl)amino)phenyl)benzamide]	0.9 ± 0.06 µM	> 230 °C	39 ± 1.91 µM (≈ 13.5 µg/mL)	–
CCNc1cc(C)nc(Nc2ccc(NC(=O)c3ccccc3)cc2)n1 [H U Et, N-(4-((4-(ethylamino)-6-methylpyrimidin-2-yl)amino)phenyl)benzamide]	1.65 ± 0.16 µM	225 to 226 °C	26.9 ± 1.39 µM (≈ 9.36 µg/mL)	–
CCc1nc2ccc(Cl)cn2c1C(=O)NCc1ccc(N2CCC(c3ccc(OC(F)(F)F)cc3)CC2)cc1 [Q203, 6-chloro-2-ethyl-N-[[4-[4-[4-(trifluoromethoxy)phenyl]piperidin-1-yl]phenyl]methyl]imidazo[1,2-a]pyridine-3-carboxamide]	–	–	–	effect of Q203 in the presence of cpd 6 ([3]; ATP synthesis, FIG. 3E): additive effect; concentration for complete inhibition of oxygen consumption ([5]; Q203 in combination with 40 μM of cpd 6): 100 nM
